For this test, the target named is human Kv1.3 (Homo sapiens (Human), UniProt P22001). The test is described as follows: Kv1.3 potency evaluation, automated patch clamp electrophysiology (QPatch HT) in CHO-Kv1.3 cells. To be noted: whole-cell QPatch HT, % inhibition of charge, step to +30 mV, four concentrations, N≥3 cells, read-out: hKv1.3 IC50. Format: cell-based. The procedure, abridged: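 Automated whole-cell patch clamp in CHO cells stably expressing human Kv1.3; steps from −80 to +30 mV (500 ms) at 0.067 Hz. Four cumulative concentrations after vehicle (0.1-0.3% DMSO); charge inhibition vs vehicle fitted by four-parameter logistic for IC50, N≥3 cells.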
In general terms: Patch clamp records ionic current or voltage across a cell membrane.

These results are taken from patent US12128028B2, “Heterocyclic sulfonamide derivatives and pharmaceutical uses thereof” (METRION BIOSCIENCES LIMITED, priority 2018, dated 2024).

human Kv1.3, sequence (P22001 whole entry): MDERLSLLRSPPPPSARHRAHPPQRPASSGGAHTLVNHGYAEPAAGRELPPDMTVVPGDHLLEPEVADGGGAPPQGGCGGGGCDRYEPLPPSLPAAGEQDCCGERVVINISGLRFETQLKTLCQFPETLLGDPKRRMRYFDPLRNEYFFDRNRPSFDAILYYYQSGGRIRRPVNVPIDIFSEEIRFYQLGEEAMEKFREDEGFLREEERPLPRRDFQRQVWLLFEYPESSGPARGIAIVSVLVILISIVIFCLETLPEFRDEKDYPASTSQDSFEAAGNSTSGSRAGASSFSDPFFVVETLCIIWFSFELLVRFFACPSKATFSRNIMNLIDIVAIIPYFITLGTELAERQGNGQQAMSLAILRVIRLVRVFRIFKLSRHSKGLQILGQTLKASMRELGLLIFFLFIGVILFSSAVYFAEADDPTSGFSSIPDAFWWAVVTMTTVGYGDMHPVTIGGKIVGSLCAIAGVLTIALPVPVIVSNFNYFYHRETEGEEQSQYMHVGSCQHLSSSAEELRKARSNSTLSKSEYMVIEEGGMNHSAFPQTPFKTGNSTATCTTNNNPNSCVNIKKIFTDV

By IC50 is commonly meant the concentration that gives 50% inhibition. For `CC1(C)N=C(C23CC(N(Cc4ccc(Cl)cc4)S(=O)(=O)CCC(F)(F)F)(C2)C3)N[C@H]1C(=O)NCCC(F)(F)F` (mixture of isomers) [Example 201], the IC50 was 131 nM.
Take `CC1(C)N=C(C23CC(N(Cc4ccc(Cl)c(F)c4)S(=O)(=O)c4ccccc4)(C2)C3)N[C@H]1C(=O)N1CC2(C1)CC(F)(F)C2` (mixture of isomers) [Example 198]: the IC50 is 126 nM.
As to `CC1(C)N=C(C23CC(N(Cc4ccc(Cl)cc4)S(=O)(=O)CC4CC(F)(F)C4)(C2)C3)N[C@H]1C(=O)NCCC(F)(F)F` (mixture of isomers) [Example 231], the IC50 amounted to 205 nM.
In the case of `CC1(C)N=C(C23CC(N(Cc4ccc(Cl)c(F)c4)S(=O)(=O)c4ccccc4)(C2)C3)N[C@H]1C(=O)N1CCCCC1` (mixture of isomers) [Example 31], the IC50 was 42 nM.
Take `CC1(C)N=C(C23CC(N(Cc4ccc(Cl)c(Cl)c4)S(=O)(=O)c4ccccc4O)(C2)C3)N[C@H]1C(=O)NCCC(F)(F)F` (mixture of isomers) [Example 226]: the IC50 amounted to 185 nM.
`O=C(NCC1CCC1)C1NC(C23CC(N(Cc4ccc(C(F)(F)F)cc4)S(=O)(=O)c4ccc(F)cc4)(C2)C3)=NC12CCC2` (stereo not shown) [Example 229]: the IC50 came to 199 nM.
In the case of `CC1(C)N=C(C23CC(N(Cc4ccc(C(F)(F)F)cc4)S(=O)(=O)c4ccccc4)(C2)C3)N[C@H]1C(=O)NCCC(F)(F)F` (mixture of isomers) [Example 138] it was 84 nM.
Then `O=C(NCCC(F)(F)F)[C@@H]1NC(C23CC(N(Cc4ccc(C(F)(F)F)cc4)S(=O)(=O)c4ccc(F)cc4)(C2)C3)=NC12CC2` [Example 224], with 178 nM; and `CC1(C)N=C(C23CC(N(Cc4ccc(Cl)c(F)c4)S(=O)(=O)c4ccccc4)(C2)C3)N[C@H]1C(=O)N1CC2CCC(C1)C2(F)F` (mixture of isomers) [Example 88], with 63 nM; and `C[C@H]1CCN(C(=O)[C@@H]2NC(C34CC(N(Cc5ccc(Cl)c(F)c5)S(=O)(=O)c5ccccc5)(C3)C4)=NC2(C)C)C1` (mixture of isomers) [Example 85], with 62 nM.
For the compound `CC1(C)N=C(C23CC(N(Cc4ccc(Cl)c(Cl)c4)S(=O)(=O)CCCF)(C2)C3)N[C@H]1C(=O)NCC1CC(F)(F)C1` (mixture of isomers) [Example 132], the IC50 worked out at 78 nM.
As for `CN(C[C@H]1CC1(F)F)C(=O)[C@@H]1NC(C23CC(N(Cc4ccc(Cl)c(Cl)c4)S(=O)(=O)CCC(F)F)(C2)C3)=NC1(C)C` (mixture of isomers) [Example 183], the IC50 was determined as 108 nM.
In the case of `C[C@]1(C(=O)N2CC3(CCC3)C2)CN=C(C23CC(N(Cc4ccc(C(F)(F)F)cc4)S(=O)(=O)c4ccc(F)cc4)(C2)C3)N1` (mixture of isomers) [Example 253] it was 323 nM; in that of `CC1(C)N=C(C23CC(N(Cc4ccc(C(F)(F)F)cc4)S(=O)(=O)c4ccc(F)cc4)(C2)C3)N[C@@H]1C(=O)NCCC(F)(F)F` (mixture of isomers) [Example 251], 307 nM; in that of `CC1(C)N=C(C23CC(N(Cc4ccc(Cl)c(F)c4)S(=O)(=O)c4ccccc4)(C2)C3)N[C@H]1C(=O)N1CCC2(C1)CC2(F)F` (mixture of isomers) [Example 129], 78 nM.
In the case of `CC1(C)N=C(C23CC(N(Cc4ccc(Cl)c(F)c4)S(=O)(=O)c4ccccc4)(C2)C3)N[C@H]1C(=O)NC1CC1C(F)(F)F` (mixture of isomers) [Example 169] it was 100 nM.
On to `CC1(C)N=C(C23CC(N(Cc4ccc(Cl)cc4)S(=O)(=O)c4cccs4)(C2)C3)N[C@H]1C(=O)NCCC(F)(F)F` (mixture of isomers) [Example 18], for which the IC50 is 36 nM.
For the compound `CC1(C)N=C(C23CC(N(Cc4ccc(Cl)c(F)c4)S(=O)(=O)c4ccccc4O)(C2)C3)N[C@H]1C(=O)NCCC(F)(F)F` (mixture of isomers) [Example 225], the IC50 is 182 nM.
For `CCCS(=O)(=O)N(Cc1ccc(Cl)c(Cl)c1)C12CC(C3=NC(C)(C)[C@H](C(=O)NCC4(C(F)(F)F)CC4)N3)(C1)C2` (mixture of isomers) [Example 143], the IC50 came to 85 nM.
Consider `CC1(C)N=C(C23CC(N(Cc4ccc(Cl)c(F)c4)S(=O)(=O)c4ccccc4)(C2)C3)N[C@H]1C(=O)N1CCC(F)(F)C2(CC2)C1` (mixture of isomers) [Example 166], for which the IC50 amounted to 99 nM.
On to `C[C@]1(C(=O)N2CC3CC3C2)CN=C(C23CC(N(Cc4ccc(C(F)(F)F)cc4)S(=O)(=O)c4ccc(F)cc4)(C2)C3)N1` (mixture of isomers) [Example 234], for which the IC50 was 211 nM.
Turning to `C[C@]1(C(=O)NCC2CC(F)(F)C2)CN=C(C23CC(N(Cc4ccc(C(F)(F)F)cc4)S(=O)(=O)c4ccc(F)cc4)(C2)C3)N1` (mixture of isomers) [Example 227], the IC50 amounted to 186 nM.
As to `CC(NC(=O)[C@@]1(C)CN=C(C23CC(N(Cc4ccc(C(F)(F)F)cc4)S(=O)(=O)c4ccc(F)cc4)(C2)C3)N1)C1CCC1` (mixture of isomers) [Example 275], the IC50 was determined as 571 nM.
In the case of `CC1(C)N=C(C23CC(N(Cc4ccc(C(F)(F)F)cc4)S(=O)(=O)c4ccc(F)cc4)(C2)C3)N[C@H]1C(=O)NCCC(F)(F)F` (mixture of isomers) [Example 217], the IC50 worked out at 167 nM.
Take `C[C@]1(C(=O)NCc2ccccc2)CN=C(C23CC(N(Cc4ccc(C(F)(F)F)cc4)S(=O)(=O)c4ccc(F)cc4)(C2)C3)N1` (mixture of isomers) [Example 270]: the IC50 came to 485 nM.
Consider `CC1(C)N=C(C23CC(N(Cc4ccc(Cl)c(Cl)c4)S(=O)(=O)c4ccccc4)(C2)C3)N[C@H]1C(=O)NCCC(F)(F)F` (mixture of isomers) [Example 62], for which the IC50 came out at 52 nM.
As to `CC1(C)N=C(C23CC(N(Cc4ccc(Cl)c(F)c4)S(=O)(=O)c4ccccc4)(C2)C3)N[C@H]1C(=O)N1CC(F)(F)C(F)(F)C1` (mixture of isomers) [Example 61], the IC50 was determined as 51 nM.
Then `CCCCCS(=O)(=O)N(Cc1ccc(Cl)cc1)C12CC(C3=NC(C)(C)[C@H](C(=O)NCCC(F)(F)F)N3)(C1)C2` (mixture of isomers) [Example 80], with 61 nM.
Take `CC1(C)N=C(C23CC(N(Cc4ccc(Cl)cc4)S(=O)(=O)c4ccn(C5CC5)n4)(C2)C3)N[C@H]1C(=O)NCCC(F)(F)F` (mixture of isomers) [Example 90]: the IC50 is 64 nM.
On to `CC(F)(F)CCS(=O)(=O)N(Cc1ccc(Cl)c(Cl)c1)C12CC(C3=NC(C)(C)[C@H](C(=O)NCC4CC(F)(F)C4)N3)(C1)C2` (mixture of isomers) [Example 158], for which the IC50 was found to be 95 nM.
Then `CC1(C)N=C(C23CC(N(Cc4ccc(Cl)c(F)c4)S(=O)(=O)c4ccccc4)(C2)C3)N[C@H]1C(=O)N1CCC(F)(F)C(C)(C)C1` (mixture of isomers) [Example 200], with 129 nM.
`CC1(C)N=C(C23CC(N(Cc4ccc(Cl)cc4)S(=O)(=O)CC4CC4)(C2)C3)N[C@H]1C(=O)NCCC(F)(F)F` (mixture of isomers) [Example 4]: the IC50 is 79 nM.
In the case of `C[C@]1(C(=O)NCCC2CCC2)CN=C(C23CC(N(Cc4ccc(C(F)(F)F)cc4)S(=O)(=O)c4ccc(F)cc4)(C2)C3)N1` (mixture of isomers) [Example 278], the IC50 came to 595 nM.
Then `CC1(C)N=C(C23CC(N(Cc4ccc(F)c(Cl)c4)S(=O)(=O)c4ccccc4)(C2)C3)N[C@H]1C(=O)NCCC(F)(F)F` (mixture of isomers) [Example 65], with 53 nM; and `CCCS(=O)(=O)N(Cc1ccc(Cl)c(Cl)c1)C12CC(C3=NC(C)(C)[C@H](C(=O)NC4CCC(F)(F)CC4)N3)(C1)C2` (mixture of isomers) [Example 174], with 103 nM; and `CC1(C)N=C(C23CC(N(Cc4ccc(Cl)cc4)S(=O)(=O)c4cccc(F)c4)(C2)C3)N[C@H]1C(=O)NCCC(F)(F)F` (mixture of isomers) [Example 59], with 51 nM.
In the case of `CC1(C)N=C(C23CC(N(Cc4ccc(Cl)c(F)c4)S(=O)(=O)c4ccccc4)(C2)C3)N[C@H]1C(=O)N1CCC2(CC2)C1` (mixture of isomers) [Example 57], the IC50 was 50 nM.
Consider `CC1(C)N=C(C23CC(N(Cc4ccc(Cl)cc4)S(=O)(=O)c4ccccc4O)(C2)C3)N[C@H]1C(=O)NCCC(F)(F)F` (mixture of isomers) [Example 180], for which the IC50 was found to be 106 nM.
For `CC1(C)N=C(C23CC(N(Cc4ccc(Cl)c(Cl)c4)S(=O)(=O)CCC(F)F)(C2)C3)N[C@H]1C(=O)N1CCC(F)(F)CC1` (mixture of isomers) [Example 194], the IC50 is 121 nM.
In the case of `CC1(C)N=C(C23CC(N(Cc4ccc(Cl)c(F)c4)S(=O)(=O)c4ccccc4)(C2)C3)N[C@H]1C(=O)N1CC2CC(F)(F)CC2C1` (mixture of isomers) [Example 82] it was 61 nM.
For `CC1(C)N=C(C23CC(N(Cc4ccc(C(F)(F)F)cc4)S(=O)(=O)c4ccc(F)cc4)(C2)C3)NC1C(=O)NCC1CC1(F)F` (stereo not shown) [Example 161], the IC50 was 98 nM.
In the case of `CC1(C)N=C(C23CC(N(Cc4ccc(Cl)cc4)S(=O)(=O)c4ccc(Cl)cc4)(C2)C3)N[C@H]1C(=O)NCCC(F)(F)F` (mixture of isomers) [Example 66] it was 53 nM; in that of `CN(CC(C)(C)F)C(=O)[C@@H]1NC(C23CC(N(Cc4ccc(Cl)c(Cl)c4)S(=O)(=O)c4ccccc4)(C2)C3)=NC1(C)C` (mixture of isomers) [Example 58], 50 nM.
With `CC(C)NC(=O)[C@H]1NC(C23CC(N(Cc4ccc(Cl)c(F)c4)S(=O)(=O)c4ccccc4)(C2)C3)=NC1(C)C` (mixture of isomers) [Example 240], the IC50 turned out to be 235 nM.
In the case of `CC1(C)N=C(C23CC(N(Cc4ccc(C#N)cc4)S(=O)(=O)c4ccccc4)(C2)C3)N[C@H]1C(=O)NCCC(F)(F)F` (mixture of isomers) [Example 246] it was 258 nM.
With `C[C@]1(C(=O)NCC2CC2)CN=C(C23CC(N(Cc4ccc(C(F)(F)F)cc4)S(=O)(=O)c4ccc(F)cc4)(C2)C3)N1` (mixture of isomers) [Example 218], the IC50 came to 168 nM.
